Measurements reported in PMC5833389 (Oncogenesis, 2018).

Legend:
[1] = system: PC-3 cells; assay: Clonogenic assay in soft agar (anchorage-independent growth); type: cell-based, human; settings: alamarBlue, read-out: Colony formation EC50 PC-3
Method: Clonogenic assays were performed using agarose-containing media. Cells were incubated at 37 °C and 5% CO2 for 14 days. alamarBlue® was used to detect colonies of viable cells (530 nm/590 nm). Data analysis was performed as described above.

[2] = system: PC-3 cells; assay: Proliferation assay, adherent monolayer, alamarBlue; type: cell-based, human; settings: adherent monolayers
Method: PC-3 cells were incubated with compounds for 5 days at 37 °C/5% CO2, stained with alamarBlue® and fluorescence was determined (544 nm/590 nm). Data were analyzed as described above.

- EC50 [1]: 42 nM
- EC50 [2]: 1650 nM
Structure (SMILES): CN(c1ncccc1CNc1nc(Nc2ccc3c(c2)CC(=O)N3)ncc1C(F)(F)F)S(C)(=O)=O [PF-562,271, reference compound]
